In experiment [1] the test system is TNF-α production. Briefly: Inhibitory effect on TNF-α production in mice (LPS). In kind it is in vivo, BALB/c mice. The conditions noted are these: Mus musculus, 1.5 h; oral administration of 30 mg/kg, LPS 5 μg i.p. 60 minutes later, plasma after 90 minutes; read-out: TNF-α production suppressing action. Here is the method: BALB/c mice (Japan CRJ, famale) were used as experimental animals. Each test compound was dissolved in distilled water at a concentration suitable for the examination. The weight of each mouse was measured, a test compound solution was orally administered in a volume corresponding to 10 ml/kg, and only distilled water was administered to the control group. Each group consisted of five to seven animals. LPS was dissolved in physiological saline, and intraperitoneally administered to each mouse in an amount of 5 μg. The test compound was administered first, and LPS (lipopolysaccharide, Sigma) was administered 60 minutes later. After 90 minutes, blood was collected from the abdominal large vein in the presence of heparin, and plasma was obtained by centrifugation. TNF-α content in the plasma was measured by using the ELISA method.

The test system of experiment [2] is rabbit normal intraocular pressure. Briefly: Intraocular pressure reducing action. In kind it is in vivo, Japanese white rabbit. The settings on record: Oryctolagus cuniculus, topical; 3 mM aqueous solution, 50 μl to the left eye; max IOP reduction (2, 4, 6 hours) / value immediately before administration; read-out: intraocular pressure reducing degree. The method, boiled down:
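Japanese white rabbits (~2 kg) under topical anaesthesia received 50 μl of a 3 mM aqueous test solution in the left eye, right eye untreated. IOP read by tonometer before and at 2, 4, 6 h; maximal left–right difference divided by pre-dose IOP ×100 gives % reduction.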

Experiment [3] addresses T1, human ROCK1 (Homo sapiens, UniProt Q13464).
T1 construct: His tag (N); host or cells: insect cells (Sf9)
Briefly: Measurement of Rho kinase inhibitory activity (ELISA of MBS phosphorylation). In kind it is biochemical. The settings on record: human ROCK1, MBS substrate, 100 μM ATP, 30° C. for 10 minutes. As to the method:
In this test, human ROCK1 was used as Rho kinase, MBS (myosin binding subunit, subunit constituting myosin phosphatase) was used as the substrate of Rho kinase, and an anti-phosphorylated MBS antibody was used for detection of phosphorylation. The activity for inhibiting Rho kinase was determined by measuring phosphorylation of MBS by the Rho kinase by ELISA in the presence of an appropriately diluted test compound. As the Rho kinase used, a recombinant protein (N-terminal His-tagged recombinant human ROCK1 residues (1Met-[…])) was used, which was produced in insect cells (Sf9) using a sequence (1-727), of which activity was confirmed in the paper of Ishizaki et al. (Ishizaki, T. et al., FEBS Letters, 404, pp 118-124, 1997), based on the sequence of human ROCK1 (p 160 ROCK) described in the report of Ishizaki et al. (Ishizaki, T. et al., EMBO J., 15, pp 1885-1893, 1996). Further, as the MBS protein and anti-phosphorylated MBS antibody, those prepared according to the method described in the paper of Ito et al. (Ito, K et al., J. Physiol., 546, pp 823-836, 2003) were used.
A solution of MBS (Asahi Kasei Pharma, lot No, 040814n7-10) diluted with PBS to an appropriate concentration was added to an ELISA plate (Maxisorp, Nunc), and left, stand overnight at 4° C., and then the wells were washed twice with a washing solution (WB, washing buffer, 0.1% Tween 20/PBS). To the wells were added 1% bovine serum albumin (Sigma)/PBS, and left for 1 to 3 hours, and then the wells were washed 5 times with WB to prepare a substrate-immobilized plate. Onto this plate, a reaction mixture (5 mM MgSO4/0.1 M NaCl/20 mM HEPES (pH 7.5)/100 μM ATP/5 mM DTT), a test compound, and appropriately diluted human ROCK1 (Asahi Kasei Pharma, lot No, 030126.120-22) were added, and then reacted at 30° C. for 10 minutes. Then, 0.2 M EDTA (pH 7.5) was added to terminate the reaction, and the wells were washed 5 times with WB. A rabbit anti-phosphorylated MBS antibody solution (Asahi Kasei Pharma, lot No, 122676431) diluted 10,000 times with WB containing 1% bovine serum albumin was added to the wells, and after the reaction for 1 hour, the wells were washed 5 times with WB. Goat anti-rabbit IgG-HRP (Zymed) diluted 1,000 times with WB containing 1% bovine serum albumin was added to the wells as the secondary detection antibody and the mixture was reacted for 1 hour, and then the wells were washed 5 times with WB. An OPD (o-phenylenediamine) solution (1 mg/ml OPD, Sigma), 5.1 g/l of citric acid monohydrate, and 18.4 g/l of Na2HPO4.12H2O were added to the wells to develop color, […] was added 5 minutes later to terminate the color development, and absorbance was measured at 490 nm.
The inhibition ratio was calculated as follows. Inhibition ratio(%)=[…]
Further, the inhibition ratio was calculated with changing the concentration of the test compound, and a compound concentration providing an inhibition ratio of 50% was obtained as IC50.
(In general: An ELISA detects its analyte on a solid surface through an enzyme-linked reagent.)

Each structure is given as a SMILES string.

T1 sequence (Q13464 1-727): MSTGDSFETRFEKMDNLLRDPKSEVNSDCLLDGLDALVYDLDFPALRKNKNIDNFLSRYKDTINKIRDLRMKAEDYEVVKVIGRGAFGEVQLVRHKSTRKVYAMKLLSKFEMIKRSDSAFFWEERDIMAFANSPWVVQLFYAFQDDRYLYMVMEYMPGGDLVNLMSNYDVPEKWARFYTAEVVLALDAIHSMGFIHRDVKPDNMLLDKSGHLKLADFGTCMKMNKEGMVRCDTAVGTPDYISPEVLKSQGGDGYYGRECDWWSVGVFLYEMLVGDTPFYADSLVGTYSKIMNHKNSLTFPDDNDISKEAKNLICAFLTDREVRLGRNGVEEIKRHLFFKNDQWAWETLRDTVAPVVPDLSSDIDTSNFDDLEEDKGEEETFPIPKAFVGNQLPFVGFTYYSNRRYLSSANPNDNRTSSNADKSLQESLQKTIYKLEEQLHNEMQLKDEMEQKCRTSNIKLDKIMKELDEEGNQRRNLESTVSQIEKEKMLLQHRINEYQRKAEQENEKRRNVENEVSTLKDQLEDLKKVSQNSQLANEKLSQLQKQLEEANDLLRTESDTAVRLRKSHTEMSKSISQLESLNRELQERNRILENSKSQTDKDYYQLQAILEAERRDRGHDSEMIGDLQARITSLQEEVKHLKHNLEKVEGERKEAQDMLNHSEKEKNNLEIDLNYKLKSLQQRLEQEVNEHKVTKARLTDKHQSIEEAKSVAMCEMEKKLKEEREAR

Take `N[C@H]1CCCN(S(=O)(=O)c2cccc3cncc(Br)c23)C1` [Example 2-1, (S)-3-Amino-1-(4-bromo-5-isoquinolinesulfonyl)piperidine]: the inhibition in vivo at 30 mg/kg in experiment [1] was at least 50%. One may read the IC50 as the concentration that gives 50% inhibition. Read a low IC50 as higher potency. As to `CN[C@@H]1CCN(S(=O)(=O)c2cccc3cncc(C)c23)C1` [Example 27, (R)-3-(Methylamino)-1-(4-methyl-5-isoquinolinesulfonyl)pyrrolidine], the inhibition in vivo at 3000 µM in experiment [2] is 5 to 10%. The molecule further returned an IC50 in experiment [3] of under 1000 nM.

Turning to `N[C@H]1CCN(S(=O)(=O)c2cccc3c(O)ncc(Cl)c23)C1` [Example 30-1, (S)-3-Amino-1-(1-hydroxy-4-chloro-5-isoquinolinesulfonyl)pyrrolidine], the inhibition in vivo at 3000 µM in experiment [2] was at least 20%. The IC50 in experiment [3] was under 1000 nM. The corresponding values for `CN[C@@H]1CCN(S(=O)(=O)c2cccc3c(O)ncc(Cl)c23)C1` [Example 36-2, (R)-1-(1-Hydroxy-4-chloro-5-isoquinolinesulfonyl)-3-(methylamino)pyrrolidine] are 10 to 20% and 1000 to 3000 nM. Take `O=S(=O)(c1cccc2c(O)ncc(Br)c12)N1CC[C@H](NCc2ccco2)C1` [Example 38-1, (S)-1-(1-Hydroxy-4-bromo-5-isoquinolinesulfonyl)-3-(2-furylmethylamino)pyrrolidine]: the inhibition in vivo at 3000 µM in experiment [2] lay within 5 to 10%. The IC50 in experiment [3] was in the range of 1000 to 3000 nM. `CC(N)C1CCN(S(=O)(=O)c2cccc3cncc(Cl)c23)C1` (stereo not drawn) [Example 45, 3-(1-Aminoethyl)-1-(4-chloro-5-isoquinolinesulfonyl)pyrrolidine]: the inhibition in vivo at 3000 µM in experiment [2] is 5 to 10%. This molecule had an IC50 in experiment [3] of 1000 to 3000 nM. The corresponding values for `CNCC(=O)N[C@H]1CCN(S(=O)(=O)c2cccc3cncc(Cl)c23)C1` [Example 51-1, (S)-3-(2-Methylaminoacetyl)amino-1-(4-chloro-5-isoquinolinesulfonyl)pyrrolidine] are 10 to 20% and 1000 to 3000 nM.

With `CC(N)C1CCN(S(=O)(=O)c2cccc3cncc(Cl)c23)CC1` (stereo not drawn) [Example 53], the inhibition in vivo at 3000 µM in experiment [2] fell in the range of 10 to 20%. Also, the IC50 in experiment [3] is under 1000 nM.

As to `NCC(=O)N[C@H]1CCN(S(=O)(=O)c2cccc3cncc(Cl)c23)C1` [Example 58-1, (S)-3-(2-Aminoacetyl)amino-1-(4-chloro-5-isoquinolinesulfonyl)pyrrolidine], the inhibition in vivo at 3000 µM in experiment [2] is at least 20%. The same molecule gave an IC50 in experiment [3] of 1000 to 3000 nM. The corresponding values for `NCC1CN(S(=O)(=O)c2cccc3cncc(Cl)c23)C1` [Example 60, 3-(Aminomethyl)-1-(4-chloro-5-isoquinolinesulfonyl)azetidine] are 5 to 10% and 1000 to 3000 nM. The corresponding values for `NCCCN[C@H]1CCN(S(=O)(=O)c2cccc3cncc(Cl)c23)C1` [Example 62-1, (S)-3-(3-Aminopropyl)amino-1-(4-chloro-5-isoquinolinesulfonyl)pyrrolidine] are 10 to 20% and 1000 to 3000 nM.

Turning to `O=S(=O)(c1cccc2c(O)ncc(Cl)c12)N1CC[C@H](NC2CCOCC2)C1` [Example 64-1, (S)-3-(4-Tetrahydropyranyl)amino-1-(1-hydroxy-4-chloro-5-isoquinolinesulfonyl)pyrrolidine], the inhibition in vivo at 3000 µM in experiment [2] lay in the range of 10 to 20%. Further, in experiment [3], the IC50 is under 1000 nM. On to `Cc1cncc2cccc(S(=O)(=O)N3CC[C@H](NCCCNC(=O)Nc4ccccc4)C3)c12` [Example 65-1, (S)—N-[3-[1-(4-Methyl-5-isoquinolinesulfonyl)pyrrolidin-3-yl]aminopropyl],N′-phenylurea], for which the inhibition in vivo at 3000 µM in experiment [2] lay within 10 to 20%. For the same molecule, in experiment [3], the IC50 is under 1000 nM. The corresponding values for `O=C(CCN1CCCCC1)N[C@H]1CCN(S(=O)(=O)c2cccc3cncc(Cl)c23)C1` [Example 80, (S)-3-[3-(Piperidin-1-yl)propionyl]amino-1-(4-chloro-5-isoquinolinesulfonyl)pyrrolidine] are 5 to 10% and 1000 to 3000 nM. Regarding `O=C(CCN1CCNCC1)N[C@H]1CCN(S(=O)(=O)c2cccc3cncc(Cl)c23)C1` [Example 83, (S)-3-[3-(piperazin-1-yl)propionyl]amino-1-(4-chloro-5-isoquinolinesulfonyl)pyrrolidine], the inhibition in vivo at 3000 µM in experiment [2] lay within 10 to 20%. For the same molecule, the IC50 in experiment [3] fell in the range of 1000 to 3000 nM. For `O=C(Cn1cnnn1)N[C@H]1CCN(S(=O)(=O)c2cccc3cncc(Cl)c23)C1` [Example 85, (S)-3-[2-(1H-Tetrazol-1-yl)acetyl]amino-1-(4-chloro-5-isoquinolinesulfonyl)pyrrolidine], the inhibition in vivo at 3000 µM in experiment [2] lay in the range of 10 to 20%. This molecule registered an IC50 in experiment [3] of 1000 to 3000 nM. With `NOCC(=O)N[C@H]1CCN(S(=O)(=O)c2cccc3cncc(Cl)c23)C1` [Example 101, (S)-3-[2-(Aminooxy)acetyl]amino-1-(4-chloro-5-isoquinolinesulfonyl)pyrrolidine], the inhibition in vivo at 3000 µM in experiment [2] was at least 20%. Besides, the concentration for half-maximal inhibition (IC50) in experiment [3] was under 1000 nM. The corresponding values for `O=C(N[C@H]1CCN(S(=O)(=O)c2cccc3cncc(Cl)c23)C1)C1CNCCO1` (stereo partly drawn) [Example 102, N—[(S)-1-(4-chloro-5-isoquinolinesulfonyl)pyrrolidin-3-yl]morpholin-2-carboxamide] are at least 20% and under 1000 nM. The corresponding values for `O=C(COc1ccccc1)N[C@H]1CCN(S(=O)(=O)c2cccc3cncc(Cl)c23)C1` [Example 103, (S)-3-(2-Phenoxyacetyl)amino-1-(4-chloro-5-isoquinolinesulfonyl)pyrrolidine] are at least 20% and 1000 to 3000 nM.

Turning to `O=C(COc1cccnc1)N[C@H]1CCN(S(=O)(=O)c2cccc3cncc(Cl)c23)C1` [Example 104, (S)-3-[2-(3-Pyridyloxy)acetyl]amino-1-(4-chloro-5-isoquinolinesulfonyl)pyrrolidine], in experiment [2], the inhibition in vivo at 3000 µM was at least 20%. Also, the IC50 in experiment [3] lay within 1000 to 3000 nM.

For the molecule `O=C(N[C@H]1CCN(S(=O)(=O)c2cccc3cncc(Cl)c23)C1)C1COCCO1` (stereo partly drawn) [Example 109, N—[(S)-1-(4-Chloro-5-isoquinolinesulfonyl)pyrrolidin-3-yl]-1,4-dioxane-2-carboxamide], the inhibition in vivo at 3000 µM in experiment [2] was at least 20%. Besides, the IC50 in experiment [3] was 1000 to 3000 nM. On to `O=C(COC1CCOCC1)N[C@H]1CCN(S(=O)(=O)c2cccc3cncc(Cl)c23)C1` [Example 110, (S)-3-[[2-(Tetrahydro-2H-pyran-4-yloxy)]acetyl]amino-1-(4-chloro-5-isoquinolinesulfonyl)pyrrolidine], for which the inhibition in vivo at 3000 µM in experiment [2] is at least 20%. The IC50 in experiment [3] was 1000 to 3000 nM. The corresponding values for `O=C(CN1CCC1)N[C@H]1CCN(S(=O)(=O)c2cccc3cncc(Cl)c23)C1` [Example 114, (S)-3-[2-(Azetidin-1-yl)acetyl]amino-1-(4-chloro-5-isoquinolinesulfonyl)pyrrolidine] are 5 to 10% and 1000 to 3000 nM.

Values taken from patent US7964613B2 (Asahi Kasei Pharma Corporation, priority 2007, dated 2011).
